What was measured:
[1] = Effect of pH and buffer type on emulsion stability (pH, particle size before/after one autoclave cycle); format: physicochemical; conditions: after one autoclave cycle, 2% egg lecithin
Method: Tables 6 summarizes the effect of pH and the buffer type on emulsion stability as measured by the particle size. Emulsions were made using 2% egg lecithin, 2.25% glycerin in water for injection. Particle size and pH were measured after one-autoclave cycle. For all emulsions, particle size before autoclaving as represented by D(4,3) was in a range of 0.30 to 0.45 μm. Emulsions were stable at high pH using TRIS and DEA buffer, and at low pH using phosphate buffer over varying concentrations of cinacalcet and soybean oil. Closer to pH 7 using phosphate buffer, increase in particle size was seen after autoclaving.
Particle size data is reported as D(4,3) before and after one autoclaving cycle.

[2] = Zeta potential titration of emulsions (droplet charge vs pH); format: physicochemical; conditions: cinacalcet/1% EYP/10% SBO emulsion
Method: Panel A, titration results of 1% EYP/10% SBO in 1 mM dibasic phosphate. Panel B, titration results of cinacalcet/1% EYP/10% SBO in 1 mM dibasic phosphate. Other components of the emulsions include 10% soybean oil, 1% egg lecithin, 2.25% glycerin and water. Panel C, titration results for Compound A. Emulsion composition: SBO 10%, Lecithin 2% at pH 7. Concentration of Compound A was 5 mg/mL for formulation #1 and 1 mg/mL for formulation #2.
The zeta potential measurements were made on a Malvern Zetasizer 4 laser-scattering particle electrophoretic analyzer that measures the electrophoretic mobility and zeta potential distribution. Samples were prepared for the zeta potential titration by diluting the emulsion approximately 2500 fold in 1 mM dibasic phosphate pH 9 and titrating the solution with 100 mM phosphoric acid in 0.5 pH unit increments. […] Theoretically, the emulsions are stabilized by this charge, which prevents the droplets from coalescing. […] In contrast, the cinacalcet emulsions achieve charge neutrality in the range of pH 7-7.5.

[3] = system: rabbit ear vein; test: Acute local venous toxicity / irritation in the rabbit ear vein (REV); format: in vivo; design: Erythema / Edema: scale not given here
Description: This Example illustrates the protective effect of the formulations of the invention as measured by irritation in the rabbit ear vein (REV). A typical protocol for evaluation of the local tolerance for formulations was as follows.
Dosing of animals. The rabbits used were male New Zealand rabbits weighing approximately 2.5 to 4 kg. The rabbits were acclimatized for a period of 10 days following receipt before the start of the study. The rabbits were randomized into groups based on the number of formulations to be studied. Typically 3 rabbits were used per group.
For each group of rabbits, the formulation containing the drug to be tested was dosed in the right marginal ear vein, with the corresponding placebo being dosed at the same time in the left marginal ear vein. The placebos were prepared such that they matched the formulation composition, and the technique of dosing for the drug formulations and the placebo formulations were kept the same. Typical dosing volumes ranged from 1 mL/kg to 5 mL/kg. The formulations were either dosed as (a) bolus injection wherein the entire dosing volume was administered within 5 minutes; (b) 30 minute infusion; or (c) a 2 hour infusion. The formulations were administered through appropriately sized syringes and catheters. The injection sites were marked with indelible ink for identification at each observation period. The rabbits were dosed based upon the Day 1 body weight.
Observation of animals. Each animal was observed cage side at least twice daily for mortality/morbundity. Each animal received a detailed clinical observation once prior to randomization, once prior to dosage administration and once daily thereafter.
Any abnormalities were recorded as they were observed. Observations for local irritation were scored according to the following scale
At each interval the area of irritation (if present) was also measured. The actual length and width in mm was recorded.
On day 3 the animals were euthanized and the tissues from the Pinna of the left and right ear, and any gross lesions (if present) of the ear or ear vein were collected. Histopathology was performed on the collected tissues. After fixation, the pinna was tripped into a total of 4 sections of 1 cm each; one of which included the deposition site (location of the end of the catheter in the ear) and one from approximately 1-, 2-, and 3-cm downstream from the deposition site. Each section included skin, cartilage, vein and other soft tissue. These tissues were then embedded in paraffin, sectioned and stained with hematoxylin and eosin, and examined via light microscopy.

[4] = DEA 0.05%, target cinacalcet 1 mg/mL, SBO conc. 10
[5] = DEA 0.05%, target cinacalcet 5 mg/mL, SBO conc. 5
[6] = DEA 0.05%, target cinacalcet 10 mg/mL, SBO conc. 10
[7] = DEA 0.1%, target cinacalcet 5 mg/mL, SBO conc. 5
[8] = DEA 0.2%, target cinacalcet 5 mg/mL, SBO conc. 5
[9] = DEA 0.3%, target cinacalcet 5 mg/mL, SBO conc. 5
[10] = No buffer, target cinacalcet 5 mg/mL, SBO conc. 10
[11] = PO4 buffer 15 mM, target cinacalcet 5 mg/mL, SBO conc. 10
[12] = TRIS 5 mM, target cinacalcet 1 mg/mL, SBO conc. 10
[13] = TRIS 5 mM, target cinacalcet 5 mg/mL, SBO conc. 10
[14] = TRIS 5 mM, target cinacalcet 10 mg/mL, SBO conc. 20
[15] = TRIS 10 mM, target cinacalcet 5 mg/mL, SBO conc. 5
[16] = TRIS 15 mM, target cinacalcet 5 mg/mL, SBO conc. 5
[17] = TRIS 20 mM, target cinacalcet 5 mg/mL, SBO conc. 5
[18] = emulsion with DEA buffer 0.05%, pH 9, Bolus dose, 2 mg/kg (conc. 10 mg/mL), 0 h
[19] = emulsion with DEA buffer 0.05%, pH 9, Bolus dose, 2 mg/kg (conc. 10 mg/mL), 48 h
[20] = emulsion with TRIS buffer 5 mM, pH 9, Bolus dose, 2 mg/kg (conc. 10 mg/mL), 0 h
[21] = emulsion with TRIS buffer 5 mM, pH 9, Bolus dose, 2 mg/kg (conc. 10 mg/mL), 48 h
[22] = emulsion with TRIS buffer 20 mM, pH 9, 2-hour infusion, 2 mg/kg (conc. 0.5 mg/mL), 0 h
[23] = emulsion with TRIS buffer 20 mM, pH 9, 2-hour infusion, 2 mg/kg (conc. 0.5 mg/mL), 48 h
[24] = solution in acetate mannitol buffer, pH 4, 2 hour infusion, 2 mg/kg (conc. 0.5 mg/mL), 0 h
[25] = solution in acetate mannitol buffer, pH 4, 2 hour infusion, 2 mg/kg (conc. 0.5 mg/mL), 48 h
[26] = solution in acetate mannitol buffer, pH 4, Bolus dose, 2 mg/kg (conc. 0.5 mg/mL), 0 h
[27] = solution in acetate mannitol buffer, pH 4, Bolus dose, 2 mg/kg (conc. 0.5 mg/mL), 48 h
[28] = solution in acetate mannitol buffer, pH 4, Bolus dose, 2 mg/kg (conc. 1 mg/mL), 0 h
[29] = solution in acetate mannitol buffer, pH 4, Bolus dose, 2 mg/kg (conc. 1 mg/mL), 48 h

## C[C@@H](NCCCc1cccc(C(F)(F)F)c1)c1cccc2ccccc12 [Cinacalcet, N-(1-(R)-(1-naphthyl)ethyl]-3-[3-(trifluoromethyl)phenyl]-1-aminopropane]
[1]; [4]
  D(4, 3): 0.44 μm
  pH: 8.81
[1]; [5]
  D(4, 3): 0.39 μm
  pH: 8.77
[1]; [6]
  D(4, 3): 0.41 μm
  pH: 8.82
[1]; [7]
  D(4, 3): 0.40 μm
  pH: 8.95
[1]; [8]
  D(4, 3): 0.35 μm
  pH: 9.13
[1]; [9]
  D(4, 3): 0.36 μm
  pH: 9.12
[1]; [10]
  D(4, 3): 1.48 μm
  pH: 8.45
[1]; PO4 buffer 10 mM (first of two emulsions), target cinacalcet 5 mg/mL, SBO conc. 5
  pH: 6.36
[1]; PO4 buffer 10 mM (second of two emulsions), target cinacalcet 5 mg/mL, SBO conc. 5
  pH: 6.78
[1]; PO4 buffer 10 mM, pH 6.36, target cinacalcet 5 mg/mL, SBO conc. 5
  D(4, 3): 0.39 μm
[1]; PO4 buffer 10 mM, pH 6.78, target cinacalcet 5 mg/mL, SBO conc. 5
  D(4, 3): 0.76 μm
[1]; [11]
  D(4, 3): 1.59 μm
  pH: 7.15
[1]; [12]
  D(4, 3): 0.48 μm
  pH: 8.75
[1]; TRIS 5 mM, target cinacalcet 5 mg/mL, SBO conc. 5
  pH: 8.80
[1]; [13]
  D(4, 3): 0.32 μm
  pH: 8.87
[1]; TRIS 5 mM, target cinacalcet 10 mg/mL, SBO conc. 10
  pH: 8.82
[1]; [14]
  D(4, 3): 0.36 μm
  pH: 8.82
[1]; [15]
  D(4, 3): 0.30 μm
  pH: 9.06
[1]; [16]
  D(4, 3): 0.34 μm
  pH: 9.04
[1]; [17]
  D(4, 3): 0.29 μm
  pH: 9.13
[2]; pH of about 9, 1 mM dibasic phosphate
  droplet charge of emulsion: net negative charge
[2]; titration in 1 mM dibasic phosphate
  pH range in which emulsion achieves charge neutrality: 7-7.5
[3]; administered IV as a solution, acetate mannitol buffer at pH 4
  local venous toxicity: mild to moderate
[3]; cinacalcet-containing emulsions, compared with solution
  local venous toxicity effects: greatly reduced or completely eliminated
[3]; emulsion buffered with either TRIS or DEA, dosed as bolus
  tolerability: well tolerated
[3]; emulsion containing TRIS dosed as an infusion
  tolerability: well tolerated
[3]; [18]
  Edema: 0.0 ± 0.0
  Erythema: 0.3 ± 0.6
[3]; [19]
  Edema: 0.0 ± 0.0
  Erythema: 0.0 ± 0.0
[3]; emulsion with DEA buffer 0.05%, pH 9, Bolus dose, observed for both placebo and cinacalcet emulsions
  Histopathology: Mild to moderate perivascular acute
[3]; [20]
  Edema: 0.0 ± 0.0
  Erythema: 0.0 ± 0.0
[3]; [21]
  Edema: 0.0 ± 0.0
  Erythema: 0.0 ± 0.0
[3]; emulsion with TRIS buffer 5 mM, pH 9, Bolus dose, observed for both placebo and cinacalcet emulsions
  Histopathology: Minimal to mild perivascular acute
[3]; emulsion with TRIS buffer 20 mM, pH 9, 2-hour infusion, 2 mg/kg (conc. 0.5 mg/mL)
  Histopathology: lipid emulsion was well tolerated as a 2 hour
[3]; [22]
  Edema: 0.0 ± 0.0
  Erythema: 0.0 ± 0.0
[3]; [23]
  Edema: 0.0 ± 0.0
  Erythema: 0.0 ± 0.0
[3]; solution in acetate mannitol buffer, pH 4, 2 hour infusion, 2 mg/kg (conc. 0.5 mg/mL)
  Histopathology: mild to severe acute, necrotizing inflammation
[3]; [24]
  Edema: 0.0 ± 0.0
  Erythema: 0.0 ± 0.0
[3]; [25]
  Edema: 3.3 ± 1.2
  Erythema: 4.0 ± 0.0
[3]; solution in acetate mannitol buffer, pH 4, Bolus dose, 2 mg/kg
  Histopathology: Mnimal to mild infiltrates of mixed
[3]; [26]
  Edema: 0.0 ± 0.0
  Erythema: 0.0 ± 0.0
[3]; [27]
  Edema: 1.7 ± 0.6
  Erythema: 2.7 ± 0.6
[3]; [28]
  Edema: 0.0 ± 0.0
  Erythema: 0.0 ± 0.0
[3]; [29]
  Edema: 2.0 ± 1.7
  Erythema: 2.7 ± 0.6
[3]; solution in acetate mannitol buffer, pH 4, Bolus dose, at the higher dose
  Histopathology: Mild to severe effects seen at the higher
[3]; solution, acetate mannitol buffer at pH 4
  tolerability when administered IV: poorly tolerated

Reference: patent US8779004B2, “Stable emulsion formulations” (Amgen, Inc., priority 2006, dated 2014)
